This experiment concerns the target T1, SHP2 (Homo sapiens, UniProt Q06124).
T1 construct: endogenous in cells; host or cells: MV 411
T1 sequence (Q06124 1-593): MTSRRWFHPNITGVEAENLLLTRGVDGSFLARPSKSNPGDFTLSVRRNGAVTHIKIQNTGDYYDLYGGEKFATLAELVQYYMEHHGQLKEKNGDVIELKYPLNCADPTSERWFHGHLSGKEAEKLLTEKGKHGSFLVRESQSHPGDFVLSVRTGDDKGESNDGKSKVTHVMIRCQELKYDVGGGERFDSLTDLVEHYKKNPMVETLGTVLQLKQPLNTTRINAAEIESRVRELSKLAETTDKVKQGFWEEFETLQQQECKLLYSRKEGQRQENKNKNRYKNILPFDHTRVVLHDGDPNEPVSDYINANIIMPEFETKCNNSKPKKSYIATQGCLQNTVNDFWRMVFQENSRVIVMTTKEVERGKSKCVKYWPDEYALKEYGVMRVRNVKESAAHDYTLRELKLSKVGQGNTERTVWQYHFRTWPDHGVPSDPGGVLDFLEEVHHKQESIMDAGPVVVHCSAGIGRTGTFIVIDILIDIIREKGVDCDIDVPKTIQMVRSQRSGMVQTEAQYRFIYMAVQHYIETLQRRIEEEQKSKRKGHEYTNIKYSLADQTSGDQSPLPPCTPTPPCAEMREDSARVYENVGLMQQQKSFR
Nature of the experiment: SHP2 degradation in MV 411 cells by Western blot (median degradation concentration). It is filed as cell-based. The settings on record: 24 hours with compound, SHP-2 antibody Western blot, concentration of the median degradation from exposure gray scale. An excerpt:
Reagent: complete DMEM medium, Gibco products. Fetal bovine serum, manufactured byThermoFisher. Trypsin, manufactured byThermoFisher. The SHP-2 antibody is produced by CST. Cell line, MV 411, the blast cells of patients with bi-phenotypic B-myelomonocytic leukemia, was established by Rovera. Measuring method: took the cells growing in the logarithmic phase, collected and suspended the cells in DMEM containing 10% fetal calf serum, gently blowed and beated the cells into single cell suspension by using a pipette, and counted the living cells under a microscope. […] Then cultured for 24 hours. All cells were collected and washed with PBS, lysed with RIPA lysate and collected into a 1.7 ml tube. […] metal bath for 5 minutes to fully denature the protein. 100V constant voltage electrophoresis after Western condensation and loading, stopped when bromophenol blue band reached the end point. The cellulose acetate membrane is transferred by a wet method, 45 minutes at a constant flow of 300-500 mA, 5% BSA is used for blocking for 1-2 hours at room temperature. Primary antibody of 1:500-1:8000 were used for incubation at 25° C. for 40 minutes and then washed three times. Secondary antibody was used for incubation for 15-40 min at room temperature. The proteins were detected using ultrasensitive ECL luminophores such as […], using an X-Ray film automatic developing machine. The concentration of the median degradation was calculated by exposure gray scale.
On the technique in general: In western blotting, separated proteins are transferred to a membrane and probed.

Where only a bound is given, the exact number is not on record here.

Usually DC50 stands for the midpoint of the concentration-degradation curve. Consider `CCOc1cc2oc(-c3ccc(OCCOCCOCCOCCOc4cccc5c4C(=O)N(C4CCC(=O)NC4=O)C5=O)cc3Cl)cc(=O)c2cc1-c1cc(NC)cc(C(N)=O)c1` (stereo not drawn) [Compound 62], for which the DC50 was > 250 nM.
Regarding `CCOc1cc2oc(-c3ccc(OCCOCCOCCOCCOc4cccc5c4C(=O)N(C4CCC(=O)NC4=O)C5=O)cc3Cl)cc(=O)c2cc1-c1cc(C(N)=O)cc(N(C)C)c1` (stereo not drawn) [Compound 63], the DC50 is > 250 nM.
As for `CCOc1cc2oc(-c3ccc(OCCOCCOCCOCCOc4cccc5c4C(=O)N(C4CCC(=O)NC4=O)C5=O)cc3Cl)cc(=O)c2cc1-c1cc(NC(C)=O)cc(C(N)=O)c1` (stereo not drawn) [Compound 64], the figure is > 250 nM.
As for `CCOc1cc2oc(-c3ccc(OCCOCCOCCOCCOc4cccc5c4C(=O)N(C4CCC(=O)NC4=O)C5=O)cc3Cl)cc(=O)c2cc1-c1cc(C(N)=O)cc(N(C)C(C)=O)c1` (stereo not drawn) [Compound 65], the figure is > 250 nM; as for `CCOc1cc2oc(-c3ccc(OCCOCCOCCOCCOc4cccc5c4C(=O)N(C4CCC(=O)NC4=O)C5=O)cc3Cl)cc(=O)c2cc1-c1cc(NS(C)(=O)=O)cc(C(N)=O)c1` (stereo not drawn) [Compound 66], > 250 nM.
With `CCOc1cc2oc(-c3ccc(OCCOCCOCCOCCOc4cccc5c4C(=O)N(C4CCC(=O)NC4=O)C5=O)cc3Cl)cc(=O)c2cc1-c1cc(C(N)=O)cc(N(C)S(C)(=O)=O)c1` (stereo not drawn) [Compound 67], the 50% degradation concentration (DC50) is > 250 nM.
Turning to `CCOc1cc2oc(-c3ccc(OCCOCCOCCOCCOc4cccc5c4C(=O)N(C4CCC(=O)NC4=O)C5=O)cc3Cl)cc(=O)c2cc1-c1cc(NS(=O)(=O)c2ccccc2)cc(C(N)=O)c1` (stereo not drawn) [Compound 68], the DC50 was > 250 nM.
For `CCOc1cc2oc(-c3ccc(OCCOCCOCCOCCOc4cccc5c4C(=O)N(C4CCC(=O)NC4=O)C5=O)cc3Cl)cc(=O)c2cc1-c1cc(C(N)=O)cc(N(C)S(=O)(=O)c2ccccc2)c1` (stereo not drawn) [Compound 69] the value was > 250 nM; for `CCOc1cc2oc(-c3ccc(OCCOCCOCCOCCOc4cccc5c4C(=O)N(C4CCC(=O)NC4=O)C5=O)cc3Cl)cc(=O)c2cc1-c1cc(NC(=O)NC)cc(C(N)=O)c1` (stereo not drawn) [Compound 70], > 250 nM.
`CCOc1cc2oc(-c3ccc(OCCOCCOCCOCCOc4cccc5c4C(=O)N(C4CCC(=O)NC4=O)C5=O)cc3Cl)cc(=O)c2cc1-c1cc(NC(=O)Nc2ccccc2)cc(C(N)=O)c1` (stereo not drawn) [Compound 71]: the DC50 is > 250 nM.
On to `CCOc1cc2oc(-c3ccc(OCCOCCOCCOCCOc4cccc5c4C(=O)N(C4CCC(=O)NC4=O)C5=O)cc3Cl)cc(=O)c2cc1CCC(=O)Nc1ccccc1` (stereo not drawn) [Compound 72], for which the DC50 was > 250 nM.
For `CCOc1cc2oc(-c3ccc(OCCOCCOCCOCCOc4cccc5c4C(=O)N(C4CCC(=O)NC4=O)C5=O)cc3Cl)cc(=O)c2cc1-c1cc(O)cc(C(N)=O)c1` (stereo not drawn) [Compound 73] the value was > 250 nM.
As to `CCOc1cc2oc(-c3ccc(OCCOCCOCCOCCOc4cccc5c4C(=O)N(C4CCC(=O)NC4=O)C5=O)cc3Cl)cc(=O)c2cc1-c1cc(C(N)=O)cc(C(N)=O)c1` (stereo not drawn) [Compound 74], the DC50 amounted to 2 nM.
For the molecule `CCOc1cc2oc(-c3ccc(OCCOCCOCCOCCOc4cccc5c4C(=O)N(C4CCC(=O)NC4=O)C5=O)cc3Cl)cc(=O)c2cc1-c1cc(C(C)=O)cc(C(N)=O)c1` (stereo not drawn) [Compound 75], the DC50 is 24.6 nM.
As for `CCOc1cc2oc(-c3ccc(OCCOCCOCCOCCOc4cccc5c4C(=O)N(C4CCC(=O)NC4=O)C5=O)cc3Cl)cc(=O)c2cc1-c1cc(C(N)=O)cc(C(=O)NC)c1` (stereo not drawn) [Compound 76], the figure is > 250 nM; as for `CCOc1cc2oc(-c3ccc(OCCOCCOCCOCCOc4cccc5c4C(=O)N(C4CCC(=O)NC4=O)C5=O)cc3Cl)cc(=O)c2cc1-c1cc(C(N)=O)cc(C(=O)N(C)C)c1` (stereo not drawn) [Compound 77], > 250 nM.
As for `CCOc1cc2oc(-c3ccc(OCCOCCOCCOCCOc4cccc5c4C(=O)N(C4CCC(=O)NC4=O)C5=O)cc3Cl)cc(=O)c2cc1-c1cc(C(N)=O)cc(C(=O)Nc2ccccc2)c1` (stereo not drawn) [Compound 78], the figure is > 250 nM.
Consider `CCOc1cc2oc(-c3ccc(OCCOCCOCCOCCOc4cccc5c4C(=O)N(C4CCC(=O)NC4=O)C5=O)cc3Cl)cc(=O)c2cc1-c1cc(C(N)=O)cc(S(C)(=O)=O)c1` (stereo not drawn) [Compound 79], for which the 50% degradation concentration (DC50) came to 500 nM.
`CCOc1cc2oc(-c3ccc(OCCOCCOCCOCCOc4cccc5c4C(=O)N(C4CCC(=O)NC4=O)C5=O)cc3Cl)cc(=O)c2cc1-c1cc(C(N)=O)cc(S(N)(=O)=O)c1` (stereo not drawn) [Compound 80]: the 50% degradation concentration (DC50) is > 500 nM.
For the molecule `CCOc1cc2oc(-c3ccc(OCCOCCOCCOCCOc4cccc5c4C(=O)N(C4CCC(=O)NC4=O)C5=O)cc3Cl)cc(=O)c2cc1-c1cc(C(N)=O)cc(S(=O)(=O)NC)c1` (stereo not drawn) [Compound 81], the 50% degradation concentration (DC50) was > 500 nM.
As for `CCOc1cc2oc(-c3ccc(NCCOCCOCCOCCOc4ccc5c(c4)C(=O)N(C4CCC(=O)NC4=O)C5=O)cc3Cl)cc(=O)c2cc1-c1cccc(C(C)=O)c1` (stereo not drawn) [Compound 86], the figure is 50 nM.
As for `CCOc1cc2oc(-c3ccc(OCCOCCOCCOCCOc4ccc5c(c4)C(=O)N(C4CCC(=O)NC4=O)C5=O)cc3Cl)cc(=O)c2cc1-c1cncc(C(C)=O)c1` (stereo not drawn) [Compound 87], the figure is 45 nM; as for `CCOc1cc2oc(-c3ccc(OCc4cn(CC(=O)N5CCC(OC6CC(Oc7cccc8c7C(=O)N(C7CCC(=O)NC7=O)C8=O)C6)CC5)nn4)cc3Cl)cc(=O)c2cc1-c1cccc(C(C)=O)c1` (stereo not drawn) [Compound 88], 55 nM.
As for `CCOc1cc2oc(-c3ccc(NCCOCCOCCOCCOc4cccc5c4C(=O)N(C4CCC(=O)N(COC(=O)CC6CCCCC6)C4=O)C5=O)cc3Cl)cc(=O)c2cc1-c1cccc(C(C)=O)c1` (stereo not drawn) [Compound 89], the figure is 75 nM.

Source of the values: US20240293559A1, “SHP2 inhibitor, pharmaceutical composition containing the same and application thereof” (BEIJING TIDE PHARMACEUTICAL CO., LTD., priority 2021, published 2024).
